Key:
[1] = Reactivity: air oxidation, chemiluminometric determination of N-nitroso derivatives; format: physicochemical; details: 2 mM aqueous solution diluted with water/ethanol (85/15), exposed to ambient air 72 h
Source text: The properties of 1,4-butanediamine,N-(3-aminopropyl)-N^1-methyl (II) and 1,4-butanediamine,N-(3-aminopropyl)-N^1-cyclohexyl (III) after exposure to air were studied by comparison with the corresponding non-substituted derivative, in which the N^1 amine group lacking the R substituent becomes a secondary amine group, namely 1,4-butanediamine,N-(3-aminopropyl). Since one of the common products of oxidation of the secondary amino group takes the form of the N-nitroso derivatives which are formed by reaction with the nitrogen oxides present in the air, the nitrosated derivatives which were formed upon leaving a solution of the test compounds in contact with the ambient air were determined as a parameter of reactivity.
The instrumentation used consisted of a stage on which both the analysis of the nitrite ions and the analysis of the N-nitrosamines were carried out, the latter under strong denitrosating conditions. The nitrogen oxide which developed in accordance with the amount of nitrite ions and that which developed in accordance with the quantity of nitroso groups were evaluated by way of a chemiluminometric detector.
The content of NO^2− ions was analysed using a reducing mixture of acetic acid/potassium iodide (5 ml/1 ml of 5% H2O soln.) at a temperature of 0-4° C. The nitroso groups were analysed using a denitrosating mixture of acetic acid/hydrobromic acid (5 ml/1 ml) at a temperature of 70° C.
The method for determining air oxidation of the compound was as follows.
a) a 2 mM solution of the test substance in purified water was doubly seeded, at an amount equal to 500 μl in appropriate wells of six-well plates of inert plastics material (polystyrene);
b) the solution in each well was diluted with 500 μl of a mixture of purified water and ethanol (85/15) free from contamination. This promotes the dispersion of the liquid film on the surface of the well;
c) the plate prepared in this manner is exposed to ambient air for 72 h
d) at the end of the exposure time, the residue in the well is eluted with 1 ml of purified water and then used for the chemiluminometric analysis.

[2] = tested on: hair follicles (HF) in anagen VI phase from human scalp skin; experiment: Hair shaft elongation test, ex vivo organ culture of hair follicles; format: cell-based; details: 0.5 μM, day 6; for Elongation of the hair shaft with respect to the vehicle: every 48 hours
Protocol: The activity of N-methylspermidine was tested in an ex vivo model which made it possible to measure the effect on the elongation of the hair shaft. The organ culture of hair follicles (HF) in anagen VI phase involved microdissection of HF from the skin of the human scalp (temporo-frontal area) after informed consent from the subjects who were undergoing surgery (face lifts), in accordance with the Helsinki Declaration and with the approval of the Ethics Committee of the University of Lübeck. […] For immunohistochemical studies, the isolated follicles were cultured for 6 consecutive days. Spermidine, N-methylspermidine and the vehicle (distilled water) were administered once for each change of culture medium (every 48 hours), at a concentration of 0.5 μM. The measurements of the shaft elongation after the treatment with vehicle, spermidine and N-methylspermidine were taken on days 0, 1, 4 and 6, using a Zeiss inverted binocular microscope with one eyepiece containing a reticle (Carl Zeiss, Oberkochen, Germany).

NCTC2544 cells = experiment: Antioxidant test: production of reactive oxygen species (ROS), DCFH-DA spectrofluorometry; format: cell-based, human; details: for Concentration of ROS products compared to control cells treated with H2O2: 1.5 h, α-tocopherol 250 μg/ml, spermidine and N-methylspermidine 1 nM-1 mM
Protocol: The production of reactive oxygen species (ROS) was monitored by spectrofluorometry using 2′,7′-dichlorofluorescein diacetate (DCFH-DA) as described by Tobi et al. (Tobi S E, Paul N, T McMillan J. J Photochem. Photobiol, B 2000: 57: 102-112).
The aforementioned NCTC2544 cells (˜80% confluence) were detached with trypsin/EDTA and seeded at a density of 5×10^4 cells per well, in 96-well plates. Subsequently, the cells were treated with the N-methylspermidine according to the invention and spermidine. The following concentrations of N-methylspermidine and spermidine were tested: 1 nM, 500 nM, 1 μM, 500 μM, 1 mM (final concentration in the culture medium).
α-tocopherol (250 μg/ml) was used as a comparison. The plates were incubated at 37° C., in 5% CO2, for 1.5 h. The cells grown on basal medium with 10% FBS were used as a control.

[3] = tested on: NCTC2544 human keratinocytes; experiment: MTT Assay (cell viability / cytotoxicity); format: cell-based; details: 1 nM, 500 nM, 24 or 48 hours exposure
Source text: MTT Assay is a test used for analysing cell viability (Mosmann, 1983). It is a colorimetric test based on the use of the tetrazolium salt MTT, which measures cell viability which can then be quantified by a microplate spectrophotometric reader. MTT (3-(4,5-dimethylthiazol-2-yl)-2,5-diphenyltetrazolium bromide, a tetrazole), a yellow compound, is reduced to formazan, a purple substance, in cellular mitochondria. The absorbance of this coloured solution can be quantified by measuring it at a given wavelength (570 nm) using a spectrophotometer. The maximum absorbance will depend on the solvent used. This reduction only takes place when the mitochondrial reductase enzymes are active, and the conversion to formazan can therefore be related directly to the number of viable cells. When the amount of formazan produced by cells treated with a substance is compared with the amount produced by untreated control cells, it is possible to deduce the efficacy of the tested substance in causing cell death by producing a dose-response curve. The solutions of MTT solubilised in PBS or cell culture medium, without phenol red, are of a yellowish colour. […] The resulting purple solution is analysed by spectrophotometry. An increase in the number of cells will result in an increase in the formazan obtained and in an increase in absorbance. […]

[4] = tested on: hair follicles (HF) in anagen VI phase from human scalp skin; experiment: Anagen and catagen phases in the ex vivo hair follicle model; format: cell-based
Protocol: The organ culture of hair follicles (HF) in anagen VI phase involved microdissection of HF from the skin of the human scalp (temporo-frontal area) after informed consent from the subjects who were undergoing surgery (face lifts), in accordance with the Helsinki Declaration and with the approval of the Ethics Committee of the University of Lübeck. […] For immunohistochemical studies, the isolated follicles were cultured for 6 consecutive days. Spermidine, N-methylspermidine and the vehicle (distilled water) were administered once for each change of culture medium (every 48 hours), at a concentration of 0.5 μM. The following results for the anagen and catagen phases, summarised in the graphs of FIGS. 5 and 6, were also obtained from the same ex vivo model of hair follicles (HF) described for the previous test of elongation of the hair shaft.

Compound	Nitroso derivatives after 72 h exposure [1]	Elongation of the hair shaft with respect to the vehicle [2]	Concentration of ROS products compared to control cells treated with H2O2 (NCTC2544 cells)	Cytotoxic effects / cell viability in percent against the control [3]	Effect of prolonging the anagen phase, compared with spermidine ([4]; 0.5 μM each, 6 days)	Number of hairs entering the catagen phase, compared with spermidine ([4]; 0.5 μM each, 6 days)	Follicles entering catagen spontaneously ([4]; 0.5 μM, after 6 days of treatment, vehicle more than 60%) [%]	Percentage of hair follicles in the anagen phase ([4]; 0.5 μM, after 6 days of treatment, versus vehicle)	Difference in hair shaft elongation between spermidine and N-methylspermidine [2]	Antioxidant activity compared with that of spermidine (NCTC2544 cells; comparison with spermidine)
NCCCCN(CCCN)C1CCCCC1 [N-(3-aminopropyl)-N^1-cyclohexyl-1,4-butanediamine]	absent									
NCCCCNCCCN [spermidine, N′-(3-aminopropyl)-1,4-diaminobutane, reference compound]	2.3 ppm	improve the elongation of the hair shaft significantly	decrease in the concentration of ROS products	no cytotoxic effects						
CNCCCCNCCCN [N-methylspermidine, N-(3-aminopropyl)-N′-methyl-1,4-butanediamine]	absent	improve the elongation of the hair shaft significantly	decrease in the concentration of ROS products		greater effect of prolonging the anagen phase	significantly lower	~30	significant increase	not statistically significant	no significant difference
Cc1c(C)c2c(c(C)c1O)CC[C@@](C)(CCC[C@H](C)CCC[C@H](C)CCCC(C)C)O2 [α-tocopherol, reference compound]			decrease in the concentration of ROS products							
